Here are results for 15 compounds from PubChem BioAssay AID328 (DTP/NCI, 2004).

Values joined by “and” are separate entries in the source; they are usually repeats but may differ in a detail not shown here. Equal entries are not always repeated. Toxic doses and inconclusive results are not listed.

In this test the test system is BDF1 mice, P388 leukemia ip, median survival T/C. Put plainly: NCI In Vivo Anticancer Drug Screen. Data for tumor model P388 Leukemia (intraperitoneal) in B6D2F1 (BDF1) mice. Particulars: endpoint: median survival time, higher = longer survival. An outline of the steps: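 Mice carrying the transplantable tumour receive compound or vehicle. Survival is followed in each arm, and the treated measure is divided by the vehicle measure.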

The mark [1] stands for this setting: dose: 6.25 mg/kg/injection, schedule: Q01DX009 (ip), vehicle: saline with Tween-80.
Setting [2] is: dose: 25.0 mg/kg/injection, schedule: Q04DX003 (ip), vehicle: saline with Tween-80.
Where [3] appears, read: dose: 100.0 mg/kg/injection, schedule: Q01DX009 (ip), vehicle: saline with Tween-80.
The mark [4] stands for this setting: dose: 200.0 mg/kg/injection, schedule: Q01DX009 (ip), vehicle: saline with Tween-80.
Setting [5] is: dose: 400.0 mg/kg/injection, schedule: Q01DX009 (ip), vehicle: saline with Tween-80.
Setting [6] is: dose: 50.0 mg/kg/injection, schedule: Q01DX009 (ip), vehicle: saline with Tween-80.
Where [7] appears, read: dose: 100.0 mg/kg/injection, schedule: Q04DX003 (ip), vehicle: Klucel (hydroxypropylcellulose) (HPC).
Setting [8] is: dose: 200.0 mg/kg/injection, schedule: Q04DX003 (ip), vehicle: Klucel (hydroxypropylcellulose) (HPC).
[9] abbreviates: dose: 400.0 mg/kg/injection, schedule: Q04DX003 (ip), vehicle: Klucel (hydroxypropylcellulose) (HPC).

Turning to `Cc1nc(N)nc(N)c1-c1ccc(Cl)c(Cl)c1`, the T/C by setting is: (dose: 0.85 mg/kg/injection, schedule: Q01DX009 (ip), vehicle: saline with Tween-80) 100 % of control; (dose: 1.0 mg/kg/injection, schedule: Q02DX005 (ip), vehicle: Klucel (hydroxypropylcellulose) (HPC)) 103 % of control; (dose: 1.0 mg/kg/injection, schedule: Q02DX009 (ip), vehicle: Klucel (hydroxypropylcellulose) (HPC)) 107 % of control; (dose: 2.0 mg/kg/injection, schedule: Q02DX005 (ip), vehicle: Klucel (hydroxypropylcellulose) (HPC)) 111 % of control; (dose: 2.0 mg/kg/injection, schedule: Q02DX009 (ip), vehicle: Klucel (hydroxypropylcellulose) (HPC)) 117 % of control; (dose: 3.0 mg/kg/injection, schedule: Q01DX009 (ip), vehicle: saline with Tween-80) 122 % of control. Moreover, the T/C was 101 % of control (dose: 4.0 mg/kg/injection, schedule: Q02DX005 (ip), vehicle: Klucel (hydroxypropylcellulose) (HPC)); 121 % of control (dose: 4.0 mg/kg/injection, schedule: Q02DX009 (ip), vehicle: Klucel (hydroxypropylcellulose) (HPC)); 118 % of control (dose: 4.5 mg/kg/injection, schedule: Q01DX009 (ip), vehicle: saline with Tween-80); 86 % of control under setting [1]; 97 % of control (dose: 8.0 mg/kg/injection, schedule: Q02DX005 (ip), vehicle: Klucel (hydroxypropylcellulose) (HPC)); 154 % of control (dose: 8.0 mg/kg/injection, schedule: Q02DX009 (ip), vehicle: Klucel (hydroxypropylcellulose) (HPC)). In addition, the T/C was 117 % of control (dose: 16.0 mg/kg/injection, schedule: Q02DX009 (ip), vehicle: Klucel (hydroxypropylcellulose) (HPC)); 172 % of control under setting [2]; 118 % of control (dose: 37.5 mg/kg/injection, schedule: Q04DX003 (ip), vehicle: saline with Tween-80).

As for `COc1ncnc2nc[nH]c12`, the T/C is 95 % of control under setting [3]; 100 % of control (dose: 100.0 mg/kg/injection, schedule: Q04DX003 (ip), vehicle: saline with Tween-80); 91 % of control under setting [4]; 109 % of control (dose: 200.0 mg/kg/injection, schedule: Q04DX003 (ip), vehicle: saline with Tween-80); 86 % of control under setting [5]; 95 % of control (dose: 400.0 mg/kg/injection, schedule: Q04DX003 (ip), vehicle: saline with Tween-80).

Regarding `CC12CC[C]([Hg][I])(CC1)C2(C)C`, the T/C runs as follows: (dose: 3.13 mg/kg/injection, schedule: Q01DX009 (ip), vehicle: saline with Tween-80) 121 % of control; under setting [1], 121 % of control; (dose: 12.5 mg/kg/injection, schedule: Q01DX009 (ip), vehicle: saline with Tween-80) 114 % of control.

`C=C[C@@](C)(O)CC/C=C(/C)CCC=C(C)C`: under setting [3], the T/C is 109 % of control.

In the case of `O=C1SC(c2ccccc2)=S=C1c1ccccc1`, the T/C under setting [6] is 108 % of control, the T/C under setting [3] was 123 % of control, the T/C under setting [4] is 123 % of control and the T/C under setting [5] was 117 % of control.

Take `OCC1OCC(O)C(O)C1O` (stereo not drawn): the T/C is, setting by setting: (dose: 12.5 mg/kg/injection, schedule: Q01DX010 (ip), vehicle: saline) 91 % of control; (dose: 25.0 mg/kg/injection, schedule: Q01DX010 (ip), vehicle: saline) 108 % of control; (dose: 32.0 mg/kg/injection, schedule: Q03HX024 (ip), vehicle: saline) 95 % of control; (dose: 50.0 mg/kg/injection, schedule: Q01DX010 (ip), vehicle: saline) 108 % of control; (dose: 64.0 mg/kg/injection, schedule: Q03HX024 (ip), vehicle: saline) 87 % of control; (dose: 100.0 mg/kg/injection, schedule: Q01DX010 (ip), vehicle: saline) 91 % of control. The T/C reads like this: (dose: 128.0 mg/kg/injection, schedule: Q03HX024 (ip), vehicle: saline) 100 % of control; (dose: 128.0 mg/kg/injection, schedule: Q04DX003 (ip), vehicle: saline) 87 % of control and 104 % of control; (dose: 200.0 mg/kg/injection, schedule: Q01DX010 (ip), vehicle: saline) 110 % of control; (dose: 256.0 mg/kg/injection, schedule: Q04DX003 (ip), vehicle: saline) 91 % of control and 100 % of control; (dose: 512.0 mg/kg/injection, schedule: Q04DX003 (ip), vehicle: saline) 90 % of control; (dose: 800.0 mg/kg/injection, schedule: Q01DX010 (ip), vehicle: saline) 115 % of control. The T/C (dose: 1024.0 mg/kg/injection, schedule: Q04DX003 (ip), vehicle: saline) was 100 % of control.

With `O=[N+]([O-])c1ccc(CCSCCc2ccc([N+](=O)[O-])cc2)cc1`, the T/C by setting is: (dose: 50.0 mg/kg/injection, schedule: Q01DX005 (ip), vehicle: Klucel (hydroxypropylcellulose) (HPC)) 104 % of control; (dose: 100.0 mg/kg/injection, schedule: Q01DX005 (ip), vehicle: Klucel (hydroxypropylcellulose) (HPC)) 97 % of control; (dose: 200.0 mg/kg/injection, schedule: Q01DX005 (ip), vehicle: Klucel (hydroxypropylcellulose) (HPC)) 94 % of control.

`O=c1oc2ccccc2c2c1Cc1c(oc3ccc4ccccc4c3c1=O)O2`: the T/C runs as follows: under setting [6], 91 % of control; under setting [3], 95 % of control; under setting [4], 92 % of control.

For the compound `OCC1C(CO)C2(Cl)C(Cl)=C(Cl)C1(Cl)C2(Cl)Cl` (stereo not drawn), the T/C reads like this: (dose: 100.0 mg/kg/injection, schedule: Q01DX009 (ip), vehicle: Klucel (hydroxypropylcellulose) (HPC)) 100 % of control; under setting [7], 100 % of control; (dose: 200.0 mg/kg/injection, schedule: Q01DX009 (ip), vehicle: Klucel (hydroxypropylcellulose) (HPC)) 118 % of control; under setting [8], 95 % of control; (dose: 400.0 mg/kg/injection, schedule: Q01DX009 (ip), vehicle: Klucel (hydroxypropylcellulose) (HPC)) 100 % of control; under setting [9], 109 % of control.

Consider `CCCCCCCCCCCCCCCC(N)=O`, for which the T/C (dose: 12.5 mg/kg/injection, schedule: Q01DX009 (ip), vehicle: gum acacia) is 100 % of control; the T/C (dose: 50.0 mg/kg/injection, schedule: Q01DX009 (ip), vehicle: gum acacia) is 91 % of control; the T/C under setting [7] was 86 % of control; the T/C under setting [8] is 90 % of control; the T/C under setting [9] is 104 % of control.

Regarding `Nc1cccc(/C=C/c2ccnc3ccccc23)c1`, the T/C was 97 % of control (dose: 25.0 mg/kg/injection, schedule: Q01DX001 (ip), vehicle: saline with Tween-80); 97 % of control (dose: 50.0 mg/kg/injection, schedule: Q01DX001 (ip), vehicle: saline with Tween-80); 93 % of control and 110 % of control (dose: 100.0 mg/kg/injection, schedule: Q01DX001 (ip), vehicle: saline with Tween-80); 119 % of control (dose: 200.0 mg/kg/injection, schedule: Q01DX001 (ip), vehicle: saline with Tween-80); 102 % of control (dose: 400.0 mg/kg/injection, schedule: Q01DX001 (ip), vehicle: saline with Tween-80).

Turning to `CCCCC(C(C)=O)C(C)C` (stereo not drawn), the T/C is 90 % of control (dose: 75.0 mg/kg/injection, schedule: Q01DX009 (ip), vehicle: Klucel (hydroxypropylcellulose) (HPC)); 111 % of control under setting [7]; 90 % of control (dose: 150.0 mg/kg/injection, schedule: Q01DX009 (ip), vehicle: Klucel (hydroxypropylcellulose) (HPC)); 96 % of control under setting [8]; 95 % of control (dose: 300.0 mg/kg/injection, schedule: Q01DX009 (ip), vehicle: Klucel (hydroxypropylcellulose) (HPC)); 96 % of control under setting [9].

For the compound `Cc1ncc2c[n+]([O-])ccn12`, the T/C by setting is: (dose: 50.0 mg/kg/injection, schedule: Q04DX003 (ip), vehicle: saline) 100 % of control; (dose: 100.0 mg/kg/injection, schedule: Q04DX003 (ip), vehicle: saline) 100 % of control; (dose: 200.0 mg/kg/injection, schedule: Q04DX003 (ip), vehicle: saline) 90 % of control.

Turning to `CCCCCCCCCCCCCCCC[N+](C)(C)c1ccccc1`, the T/C was 110 % of control (dose: 1.56 mg/kg/injection, schedule: Q04DX003 (ip), vehicle: saline with Tween-80); 115 % of control (dose: 3.13 mg/kg/injection, schedule: Q04DX003 (ip), vehicle: saline with Tween-80); 108 % of control under setting [2].

With `COc1cc(C)c(Cl)c(C)c1C#CC(=O)O`, the T/C is, setting by setting: (dose: 100.0 mg/kg/injection, schedule: Q01DX001 (ip), vehicle: Klucel (hydroxypropylcellulose) (HPC)) 115 % of control; (dose: 200.0 mg/kg/injection, schedule: Q01DX001 (ip), vehicle: Klucel (hydroxypropylcellulose) (HPC)) 111 % of control.
